Results from BindingDB's records for doi:10.1016/j.bmcl.2006.12.077 (Glaxosmithkline, 2007).

Biological target: Vascular endothelial growth factor receptor 2 (Homo sapiens, UniProt P35968)
Experiment: Homogeneous Time-Resolved Fluorescence (HTRF) Enzyme Assay
Conditions: pH 7.5; 22 °C
Protocol: The assay uses purified GST-Tie-2 or GST-6x His-VEGFR2 interacting with biotinylated peptide substrates. HTRF is based on the proximity of europium cryptate (donor fluorophore)-labeled antiphosphotyrosine and streptavidin labeled with APC (allophycocyanin), which have been brought together by a binding reaction. When the two entities come into close proximity and upon excitation, energy transfer occurs and APC re-emits at 665 nm. The IC50 values for inhibitors were determined by a four-parameter sigmoidal curve fit.

Chain of Vascular endothelial growth factor receptor 2 (P35968 whole entry): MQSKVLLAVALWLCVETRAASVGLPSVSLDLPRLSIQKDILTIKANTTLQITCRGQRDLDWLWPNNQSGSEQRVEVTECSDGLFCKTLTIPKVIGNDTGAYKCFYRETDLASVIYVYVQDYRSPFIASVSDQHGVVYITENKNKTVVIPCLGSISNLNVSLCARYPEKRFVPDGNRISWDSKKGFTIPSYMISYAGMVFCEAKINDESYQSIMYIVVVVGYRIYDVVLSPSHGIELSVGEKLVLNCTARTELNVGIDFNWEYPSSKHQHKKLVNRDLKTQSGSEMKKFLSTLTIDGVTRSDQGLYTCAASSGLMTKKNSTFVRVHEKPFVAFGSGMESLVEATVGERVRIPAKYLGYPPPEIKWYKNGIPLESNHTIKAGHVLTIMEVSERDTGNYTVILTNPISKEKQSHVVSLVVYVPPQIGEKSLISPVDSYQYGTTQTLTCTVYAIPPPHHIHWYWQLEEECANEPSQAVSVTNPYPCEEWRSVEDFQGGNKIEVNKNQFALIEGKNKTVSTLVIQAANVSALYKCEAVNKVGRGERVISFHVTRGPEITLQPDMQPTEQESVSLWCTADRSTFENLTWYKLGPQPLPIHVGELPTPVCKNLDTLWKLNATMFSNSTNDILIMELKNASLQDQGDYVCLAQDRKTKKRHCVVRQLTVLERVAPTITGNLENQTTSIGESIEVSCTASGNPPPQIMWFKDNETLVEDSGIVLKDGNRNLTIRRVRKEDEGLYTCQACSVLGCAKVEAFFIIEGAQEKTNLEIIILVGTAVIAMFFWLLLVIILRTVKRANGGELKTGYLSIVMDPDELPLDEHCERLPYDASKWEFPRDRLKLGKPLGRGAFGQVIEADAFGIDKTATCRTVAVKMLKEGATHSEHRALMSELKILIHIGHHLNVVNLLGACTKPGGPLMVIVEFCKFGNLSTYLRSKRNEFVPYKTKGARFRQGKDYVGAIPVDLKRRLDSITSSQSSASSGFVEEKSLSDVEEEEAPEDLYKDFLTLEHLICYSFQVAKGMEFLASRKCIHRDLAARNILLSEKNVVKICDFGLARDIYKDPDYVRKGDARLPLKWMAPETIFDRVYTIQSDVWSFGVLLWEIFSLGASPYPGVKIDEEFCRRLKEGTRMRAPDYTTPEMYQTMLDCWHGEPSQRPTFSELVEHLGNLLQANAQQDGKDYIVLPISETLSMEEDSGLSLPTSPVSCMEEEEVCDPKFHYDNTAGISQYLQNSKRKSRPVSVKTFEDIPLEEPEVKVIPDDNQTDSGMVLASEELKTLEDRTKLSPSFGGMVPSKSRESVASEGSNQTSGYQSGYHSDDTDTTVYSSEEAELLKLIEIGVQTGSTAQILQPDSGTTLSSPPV

IC50 [nM]	Compound
138	Nc1ncnc2occ(-c3ccc(NC(=O)Nc4cc(C(F)(F)F)cc(C(F)(F)F)c4)cc3)c12 [3-(4-{4-aminofuro[2,3-d]pyrimidin-5-yl}phenyl)-1-[3,5-bis(trifluoromethyl)phenyl]urea]
15.5	COc1ccc(-c2oc3ncnc(N)c3c2-c2ccc(NC(=O)Nc3cc(C(F)(F)F)ccc3F)cc2)cc1 [3-{4-[4-amino-6-(4-methoxyphenyl)furo[2,3-d]pyrimidin-5-yl]phenyl}-1-[2-fluoro-5-(trifluoromethyl)phenyl]urea]
